In data set [1] the test system is colon cancer, CS146, 2#. Briefly: Patients primary tumor tissue subcutaneous model (Day 30 after treatment). In kind it is in vivo, nude mice. To be noted: 5-Fu 50 mg/kg i.p. QW × 6w alone. From the text: (§1) Fresh primary tumor tissues from patients were implanted in NOD/SCID mice's flank, which developed into a primary tumor, which was then transferred to the nude mice's flank to allow the tumor reaching an exponential growth phase, and the tumor was named 1# tumor, and so on. When the tumor volume and number reached passage requirements, they were implanted into the right flank of nude mice. When the tumors' average volumes reached 100-200 mm^3, the mice were grouped.
(§2) The bodyweight and major/minor axis of mice were measured twice a week, and Tumor Growth Inhibition (TGI) and tumor volume were calculated same as in 5.1.5. In addition, to evaluate the synergetic effect of drug combination in tumor growth, Jin Zhengjun Q value judgment method was used with the follow formula: Q=Ea+b/(Ea+Eb−Ea×Eb). Ea+b is the inhibition ratio of drug combination, Ea and Eb are the inhibition ratio of each of drug treatment when it is administered alone. […] The animals were monitored, and when the experiments were concluded, mice were sacrificed and tumors were extracted and weighted. All the animal experiments confer to the regulations of animal's welfare and the management of experimental animal usage.
Tumor volumes were represented with average±standard error. Data analysis was done using Spss16.0, One-Way ANOVA, LSD (homogeneity of variance) or Dunnett T3 (non-homogeneity of variance). […]

Data set [2] has as its system lung cancer, CS225, 1#. Briefly: Patients primary tumor tissue subcutaneous model (Day 37 after treatment). In kind it is in vivo, nude mice. To be noted: cisplatin 5 mg/kg i.p. QW × 2w.
Description: as §1, §2
(§3) Tumor volumes were represented with average±standard error. Data analysis was done using Spss16.0, One-Way ANOVA, LSD (homogeneity of variance) or Dunnett T3 (non-homogeneity of variance). […] P<0.05 represents significant difference.

Data set [3] concerns MIA-PaCa-2. The data set can be described thus: Human pancreatic cancer MIA-PaCa-2 subcutaneous model (34 days of treatment). To be noted: for Tumor regression: treatment groups.
The test system of data set [4] is WiDr. Briefly: Human colon cancer Widr subcutaneous model (Day 27 after treatment). In kind it is in vivo, nude mice. As for the experimental part: (§4) Tumor cells (i.e., MIA-PaCa-2, WiDr, H2122, colo205) were inoculated in nude mice's flank at 5×10^6 cells per mouse. The mice were grouped when the average volume of tumors reached about 100˜200 mm^3. “QW”=weekly dose. “Q3d”=dosed every third day. “BiW”=biweekly.
(§5) The bodyweight and major/minor axis of the mice were measured twice a week, and the tumor volumes were calculated using the formula: Tumor volume=1/2×major axis[…]. […] “T” represents average tumor volume of the experimental group (cm^3), and “C” represents average tumor volume of the control group (cm^3). The animals were monitored at all times. The bodyweight and major/minor axis or mice were measured twice a week.
(§6) Tumor volumes were represented with average±standard error. […] P<0.05 represents significant difference.

Data set [5] concerns colon cancer, CS182, 5#. Briefly: Patients primary tumor tissue subcutaneous model (Day 27 after treatment). In kind it is in vivo, nude mice. The conditions noted are these: Irinotecan 50 mg/kg i.v. BiW × 6 times.
Description: as §1, §2, §3

Data set [6] concerns colon cancer, CS263, 1#. The data set can be described thus: Patients primary tumor tissue subcutaneous model (Day 35 after treatment). In kind it is in vivo, nude mice.
Description: as §1, §2, §3

Data set [7] has as its system Colo205. Briefly: Human colon cancer Colo205 subcutaneous model (Day 28 after treatment). In kind it is in vivo, nude mice. As for the experimental part: as §4, §5, §6
Data set [8] deals with H2122. The data set can be described thus: Human lung cancer H2122 subcutaneous model (Day 38 after treatment). To be noted: for Tumor regression: treatment groups.
The target in data set [9] is T1, DcR2-His (recombinant human TRAIL R4/TNFRSF10D, Sino Biological) (human, UniProt Q9UBN6 56-211, limits assumed).
T1 construct: Commercial protein; not shown: His tag
T1 sequence (looked up): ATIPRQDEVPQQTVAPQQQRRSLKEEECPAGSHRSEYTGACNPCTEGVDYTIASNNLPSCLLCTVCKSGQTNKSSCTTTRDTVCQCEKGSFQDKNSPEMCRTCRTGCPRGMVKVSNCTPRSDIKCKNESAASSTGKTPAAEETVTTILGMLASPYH
Briefly: CLEIA, antigen coated on microplate, HRP secondary antibody.

Data set [10] has as its target T2, DcR1-His (recombinant human TRAIL R3/TNFRSF10C, Novoprotein Science) (human, UniProt O14798 26-221, limits assumed).
T2 construct: Commercial protein; not shown: His tag
T2 sequence (looked up): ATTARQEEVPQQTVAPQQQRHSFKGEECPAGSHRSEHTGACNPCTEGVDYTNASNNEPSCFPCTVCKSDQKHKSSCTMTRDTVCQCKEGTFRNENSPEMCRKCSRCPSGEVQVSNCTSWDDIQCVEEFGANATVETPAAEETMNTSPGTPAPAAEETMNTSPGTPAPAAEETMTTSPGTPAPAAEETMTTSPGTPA
The data set is described as above.

In data set [11] the target is T3, DR4-His-EC (Lot: 090222-P, E coli.) (human, UniProt O00220 24-239, limits assumed).
T3 construct: it may mean extracellular or E. coli; also called TRAIL-R1; not shown: His tag
T3 sequence (looked up): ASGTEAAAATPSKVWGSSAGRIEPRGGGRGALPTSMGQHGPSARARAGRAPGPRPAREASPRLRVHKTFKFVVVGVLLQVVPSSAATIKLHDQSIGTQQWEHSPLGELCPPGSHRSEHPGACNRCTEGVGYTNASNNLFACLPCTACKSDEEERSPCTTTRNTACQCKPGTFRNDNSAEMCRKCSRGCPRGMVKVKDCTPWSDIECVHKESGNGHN
The data set is described as above.

In data set [12] the target is T4, OPG-His (recombinant human osteroprotegerin/TNFRSF11B, Wuxi Pharmatech) (human, UniProt O00300 22-401, limits assumed).
T4 construct: Commercial protein; also called osteoprotegerin; not shown: His tag
T4 sequence (looked up): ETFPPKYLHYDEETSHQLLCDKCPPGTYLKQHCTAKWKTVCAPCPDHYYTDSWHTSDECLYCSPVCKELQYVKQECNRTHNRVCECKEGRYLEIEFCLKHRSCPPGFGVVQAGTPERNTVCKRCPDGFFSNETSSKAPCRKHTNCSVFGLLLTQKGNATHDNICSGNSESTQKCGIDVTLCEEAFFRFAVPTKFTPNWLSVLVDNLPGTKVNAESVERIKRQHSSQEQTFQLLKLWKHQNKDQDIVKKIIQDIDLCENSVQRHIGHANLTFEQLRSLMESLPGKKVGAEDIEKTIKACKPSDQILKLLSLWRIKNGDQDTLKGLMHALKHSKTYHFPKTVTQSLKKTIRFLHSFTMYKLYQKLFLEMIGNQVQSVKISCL
Described as above.

The mark [13] stands for this setting: Gemcitabine 60 mg/kg i.p. Q3d × 6W.
Setting [14] is: Gemcitabine 60 mg/kg i.p. Q3d × 6W, listed as gemcitabine.
[15] abbreviates: repeated experiment, gemcitabine group.
Where [16] appears, read: Irinotecan 50 mg/kg i.v. BiW × 6 times.
[17] abbreviates: repeated experiment, Irinotecan group.
[18] abbreviates: repeated experiment, Taxol group.

Data on 6 molecules can be found in patent US20180125993A1 (BEIJING COTIMES BIOTECH COMPANY LIMITED, priority 2014, published 2018).

Marks after values point to notes of the source that are not given here.

With `O=c1[nH]cc(F)c(=O)[nH]1` [5-Fu, 5-fluorouracil, reference compound], in data set [1], the “TGI (calculated using the tumor volumes of Day 30)” value is given as 37.95%.

As for `N.N.[Cl][Pt][Cl]` [Cisplatin, cisplatin, reference compound], in data set [2], the “T/C % (Calculated using tumor volumes)” value is reported as 72.14%, the “TGI (Calculated using tumor volumes)” value was 31.45%, the “TGI (Calculated using tumor weight)” value is on record as 32.66% and the “Time of tumor volume changed significantly” value was found to be 7. Besides, in data set [2], the “Tumor Volume Mean ± SEM” value was found to be 0.73 ± 0.06 cm^3 and the “Tumor weight Mean ± SEM” value is listed as 0.48 ± 0.08 g. In data set [2] (listed as cisplatin), the “TGI (Calculated using tumor volumes)” value is 31.45% and the “TGI (Calculated using tumor weight)” value is 32.66%.

Turning to `Nc1ccn([C@@H]2O[C@H](CO)[C@@H](O)C2(F)F)c(=O)n1` [Gemcitabine, reference compound], in [3] (setting [13]), the “TGI (Calculated using tumor volumes)” value was 52.60%**, the “TGI (Calculated using tumor weight)” value is 55.66%*, the “Time of tumor volume changed significantly” value is recorded as 10 days after first treatment and the “Tumor Volume Mean ± SEM” value is reported as 1.60 ± 0.11 cm^3. Also, in data set [3] (setting [13]), the “Tumor weight Mean ± SEM” value was determined as 0.84 ± 0.07 g. Also, in data set [3] (setting [14]), the “TGI (Calculated using tumor volumes)” value is recorded as 52.60% and the “TGI (Calculated using tumor weight)” value was 55.66%. In addition, the Tumor regression entry in data set [3] (first experiment) is on record as “not found in the chemotherapy group”. Besides, the Tumor regression entry in [3] (repeated experiment) is given as “not found in the chemotherapy group alone”. In data set [3] (setting [15]), the “TGI calculated based on the tumor volume” value was 34.33% and the “TGI calculated based on the tumor weight” value was 31.30%. Further, the Bodyweights of mice result in data set [3] (treatment groups over the time) was “decreased significantly by the third dosing”.

Take `CCc1c2c(nc3ccc(OC(=O)N4CCC(N5CCCCC5)CC4)cc13)-c1cc3c(c(=O)n1C2)COC(=O)[C@]3(O)CC` [Irinotecan, reference compound]: the “Tumor weight Mean ± SEM” value in data set [4] (setting [16]) is 0.26 ± 0.04 g; in [5], 0.04 ± 0.00 g; in [6] (setting [16]) it was 0.003 ± 0.002 g; in data set [7] (setting [16]), 0.11 ± 0.02 g. The “TGI (Calculated using tumor weight)” value in [4] (setting [17]) is on record as 72.30%; in [5] it was 93.46%*; in data set [5] (listed as irinotecan), 93.46%; in [6] (setting [16]) it was 99.58%*; in data set [6] (Irinotecan 50 mg/kg i.v. BiW × 6 times, listed as irinotecan), 99.58%. For the same molecule, the “Animals showing tumor regression” value in [6] (combination: Day 24 and Day 31, irinotecan: Day 35) is given as “one animal”. Moreover, the Tumor regression result in data set [7] (first experiment, treatment groups) is reported as “none was found”. In addition, the “TGI calculated using the tumor weights” value in data set [7] (setting [17]) is given as 93.76%.

As for `CC(=O)O[C@H]1C(=O)[C@@]2(C)[C@H]([C@H](OC(=O)c3ccccc3)[C@]3(O)C[C@H](OC(=O)[C@H](O)[C@@H](NC(=O)c4ccccc4)c4ccccc4)C(C)=C1C3(C)C)[C@]1(OC(C)=O)CO[C@@H]1C[C@@H]2O` [Taxol, reference compound], in data set [8] (Taxol 24 mg/kg i.p. Q6d × 6W), the “T/C % (Calculated using tumor volumes)” value was 55.33%, the “TGI (Calculated using tumor weight)” value is given as 47.18%, the “Time of tumor volume changed significantly” value is recorded as 11 and the “Tumor Volume Mean ± SEM” value amounted to 1.08 ± 0.12 cm^3. In addition, the “Tumor weight Mean ± SEM” value in data set [8] (Taxol 24 mg/kg i.p. Q6d × 6W) is 0.87 ± 0.12 g. Further, in data set [8] (Taxol group, HuCTB006 0.2 mg/kg group), the Bodyweights result is recorded as “decreased, but were maintained at an acceptable level”. Further, the Tumor regression result in data set [8] (first experiment) is “none was observed”. In [8] (repeated experiment), the Tumor regression result was “none was observed”. For the same molecule, in data set [8] (setting [18]), the “TGI (Calculated using tumor volume)” value is 54.28% and the “TGI (Calculated using tumor weight)” value was 50.44%.

B1: HuCTB006, human chimeric anti-TRAIL-R2 (DR5) monoclonal antibody (antibody, human IgG1, V domains shown)
VH: EVQLQQSGPELVKPGASVRMSCKASGYTFTSYFIHWVKQRPGQGLEWIGWIYPGNVNTKYSEKFKGKATLTADKSSSTAYMQFSSLTSEDSAVYFCARGEAGYFDYWGQGTTLTVSS
VL: DIVMTQSHKFMSTSVGDRVSITCKASQDVSTAVAWYQQKPGQSPRLLIYWASTRHTGVPDRFTGSGSGTDYTLTISSVQAEDQALYYCQQHYRTPWTFGGGTKLEIKR
notes: also called human CTB006
Take B1: the binding result in data set [9] was “no binding (tested: 200, 40 and 8 ng/mL)”; in data set [10] it was “no binding (tested: 200, 40 and 8 ng/mL)”; in [11], “no binding (tested: 200, 40 and 8 ng/mL)”; in data set [12] it was “no binding (tested: 200, 40 and 8 ng/mL)”.
